According to patent publication US10966911B2, “Melanin decomposition inhibitor” (KAO CORPORATION, priority 2016, dated 2021):

Assays:
Type in all cases: cell-based, human
[1] = system: dopa oxidase activity of melanocytes; assay: Dopa oxidase activity of melanocytes in melanocyte single culture system; conditions: melanocytes (lightly and darkly); proguanil 0.1-1000 μM; 4 days; versus DMSO; FIGS. 14A, 14B
Protocol: Normal human neonatal foreskin-derived epidermal melanocytes (Human Epidermal Melanocytes, neonatal, lightly pigmented donor (HEMn-LP) and Human Epidermal Melanocytes, neonatal, darkly pigmented donor (HEMn-DP); melanocytes (lightly) and melanocytes (darkly)), a growth medium for epidermal melanocytes (Medium254) and a growth additive (HMGS) for the medium were purchased from Thermo Fisher Scientific. Melanocytes were cultured at 37° C. in 5 vol % CO2 atmospheric conditions.
Melanocytes (lightly and darkly) were seeded in 96-well plates at a cell density of 2×10^4 cells/well (100 μL/well). […] Thereafter, fluorescence intensity of the medium was measured (Ex544 nm/Em590 nm) to evaluate cellular respiratory chain (growth) activity. […] The cells were lysed at 4° C. over 2 hours and dopa oxidase activity was measured. The activity measurement was performed by the following method based on the […] method (Winder A. et al., 1991, Eur. J. Biochem. 198: 317-326): to individual wells containing a cell lysate, the Assay Buffer (80 μL) as mentioned above, an aqueous 20.7 mM MBTH (3-methyl-2-benzothiazolinone hydrazone) solution (60 μL) and an aqueous 5 mM L-DOPA (L-dihydroxyphenylalanine) (40 μL) solution serving as a substrate were added, a reaction was performed at 37° C. for 30 minutes and the absorbance at a wavelength of 505 nm was measured.

[2] = system: melanocytes (HEMn-LP, HEMn-DP); assay: Cellular respiratory chain (growth) activity, alamarBlue, melanocyte single culture system; conditions: melanocytes (lightly and darkly); concentration range of 30 μM or less; 4 days; FIGS. 14C, 14D
Protocol: Melanocytes (lightly and darkly) were seeded in 96-well plates at a cell density of 2×10^4 cells/well (100 μL/well). […] As a control, the same amount of DMSO was added. After completion of culture, the whole medium was replaced (100 μL/well), a reagent, alamarBlue (Bio-Rad AbD Serotec Limited) was added so as to obtain a ratio of 10 μL/well. Incubation was carried out at 37° C. in 5 vol % CO2 atmospheric conditions for one hour. Thereafter, fluorescence intensity of the medium was measured (Ex544 nm/Em590 nm) to evaluate cellular respiratory chain (growth) activity.

[3] = system: dopa oxidase activity of melanocytes; assay: Dopa oxidase activity of melanocytes in keratinocyte-melanocyte co-culture system; conditions: melanocytes (lightly and darkly), proguanil 0.1-1000 μM, 4 days, versus DMSO, FIGS. 16A, 16B
Protocol: Melanocytes (lightly and darkly) were seeded in 96-well plates at a cell density of 2×10^4 cells/well (100 μL/well). […] Two days later, proguanil was added at a final concentration of 0.1, 0.3, 1, 3, 10, 30, 100, 300 or 1000 μM and culture was performed at 37° C. in 5 vol % CO2 atmospheric conditions for 4 days. As a control, the same amount of DMSO was added. After completion of culture, the whole medium was replaced (100 μL/well), a reagent, alamarBlue (Bio-Rad AbD Serotec Limited) was added so as to obtain a ratio of 10 μL/well. Incubation was carried out at 37° C. in 5 vol % CO2 atmospheric conditions for one hour. Thereafter, fluorescence intensity of the medium was measured (Ex544 nm/Em590 nm) to evaluate cellular respiratory chain (growth) activity. […] The cells were lysed at 4° C. over 2 hours and dopa oxidase activity was measured. The activity measurement was performed by the following method based on the […] method (Winder A. et al., 1991, Eur. J. Biochem. 198: 317-326): to individual wells containing a cell lysate, the Assay Buffer (80 μL) as mentioned above, an aqueous 20.7 mM MBTH (3-methyl-2-benzothiazolinone hydrazone) solution (60 μL) and an aqueous 5 mM L-DOPA (L-dihydroxyphenylalanine) (40 μL) solution serving as a substrate were added, a reaction was performed at 37° C. for 30 minutes and the absorbance at a wavelength of 505 nm was measured. […]

[4] = system: keratinocytes and melanocytes; assay: Cellular respiratory chain (growth) activity in keratinocyte-melanocyte co-culture system; conditions: concentration range of 30 μM or less, 4 days, FIGS. 16C, 16D
From the text: Normal human neonatal foreskin-derived epidermal keratinocytes (Human Epidermal Keratinocytes, neonatal (HEKn) lightly; keratinocytes) and growth medium (Epilife) for epidermal keratinocytes were purchased from Thermo Fisher Scientific. Growth additives (Humedia-KG) for a medium were purchased from Kurabo Industries Ltd. Normal human neonatal foreskin-derived epidermal melanocytes (Human Epidermal Melanocytes, neonatal, lightly pigmented donor (HEMn-LP) and Human Epidermal Melanocytes, neonatal, darkly pigmented donor (HEMn-DP); melanocytes (lightly) and melanocytes (darkly)) were purchased from Thermo Fisher Scientific. Keratinocytes and melanocytes were cultured at 37° C. in 5 vol % CO2 atmospheric conditions.
Keratinocytes were seeded in a 96-well plate at a cell density of 1×10^4 cells/well (100 μL/well). On the following day, melanocytes (lightly and darkly) were seeded at a cell density of 2×10^4 cells/well (100 μL/well). […] Culture was performed at 37° C. in a 5 vol % CO2 atmospheric conditions for 4 days. As a test medium at this time, Epilife was used, which contained Humedia-KG growth additive (insulin, hydrocortisone, BPE, gentamicin and amphotericin B) except a Human Epidermal Growth Factor (hEGF). […] After completion of culture, cellular respiratory chain (growth) activity and dopa oxidase activity were evaluated in the same manner as in Example 11.

LC3-II = assay: Autophagy activity of epidermal keratinocytes (LC3-II accumulation with chloroquine diphosphate, Western blotting); conditions: proguanil 0.3, 1, 3, 10 or 30 μM in presence of 10 μM chloroquine diphosphate, FIG. 18
Protocol: Normal human neonatal foreskin-derived epidermal keratinocytes (Human Epidermal Keratinocytes, neonatal (HEKn) lightly; keratinocytes) were purchased from Thermo Fisher Scientific. […] The keratinocytes were cultured in a grow medium (Epilife) epidermal keratinocytes (Thermo Fisher Scientific) supplemented with a growth additive (Humedia-KG) (manufactured by Kurabo Industries Ltd.) at 37° C. in 5 vol % CO2 atmospheric conditions.
Keratinocytes were seeded in a 6-well plate at a density of 1.5×10^5 cells/well (2 mL/well). The following day, proguanil was added so as to obtain a final concentration of 0.3, 1, 3, 10 or 30 μM. Culture was performed at 37° C. in 5 vol % CO2 atmospheric conditions. As a control, the same amount of DMSO was added. […] The following day, Chloroquine diphosphate attached to LC3B Antibody Kit for Autophagy (Thermo Fisher Scientific) was added so as to obtain a final concentration of 10 μM. Culture was performed at 37° C. in 5 vol % CO2 atmospheric conditions for 24 hours. After completion of the culture, SDS-PAGE and western blotting were performed in accordance with the method as mentioned above. As a primary antibody, anti-LC3B (1:1000) attached to the kit mentioned above was used. […] Expression of β-actin as the internal standard was evaluated by using monoclonal antibody specific for β-actin (Sigma-Aldrich, 1:5000).

## [H]/N=C(\N/C(=N/[H])Nc1ccc(Cl)cc1)NC(C)C [proguanil, 1-(p-chlorophenyl)-5-isopropyl biguanide]
[1]
  dopa oxidase activity: did not accelerate dopa oxidase activity
[2]
  cell toxicity (cellular respiratory chain activity): cell toxicity was not observed
[3]
  dopa oxidase activity: does not accelerate dopa oxidase activity
[4]
  cell toxicity (cellular respiratory chain activity): cell toxicity was not observed
LC3-II
  accumulation of LC3-II: the accumulation was reduced by proguanil in a concentration-dependent manner
